Data set [1] can be described thus: Liquid-state 13C-NMR after dissolution of hyperpolarized sample (T1, polarization, hydrolysis). Format: physicochemical. The settings on record: for T1, 37 C. 14.1 T: 13C longitudinal relaxation time, in s (unit assumed). How it is done: C) The sample was dissolved in 5 ml phosphate buffer (40 mM, pH 7.3).
The test system of data set [2] is Rat liver cancer cells (Morris7777). The experiment in a line: In cell DNP conversion in rat liver cancer cells, co-polarized with 1-13C-pyruvate. The settings on record: for AUC (arb. Units), area under the metabolic curve: 10 million cells, approx. 3.5 mM of each substrate, 37 C. It is filed as cell-based. The procedure: (§1) The experiments were performed with a co-polarization of 1-^13C-1,1-Bis(acetoxy(methyl-d2))-2,2′-d4-cyclopropane and 1-^13C-pyruvic acid in equal amounts of compounds (30 μmol) resulting in a concentration of approx. 3.5 mM of each substrate in the experiments. The DNP preparation of 1-^13C-1,1-Bis(acetoxy(methyl-d2))-2,2′-d4-cyclopropane was performed as described in example 2 and the DNP preparation of 1-^13C-pyruvate was performed as described in WO 2006/011809. The two substrates were co-polarized without mixing the substrates.
Rat liver cancer cells (Morris777) were grown in RPMI+10% FBS and antibiotics. Following trypsin harvesting 10 million cells were redissolved in 500 μl phosphate buffer (PBS) and transferred to a 10 mm NMR tube and placed with connecting tubing in a 14.1 T magnet at 37 C.
(§2) Following dissolution in 5 ml phosphate buffer (40 mM pH 7.3) with addition of 2.5 μl NaOH to neutralize the pyruvic acid 2 ml of the substrate mixture was injected into 10 million cells in suspension. A series of 20 degree pulses every 2 s (56 scans in total) was acquired. The acquisition was started just before injection of the hyperpolarized substrate. Data are presented as metabolite signals as a function of time or as area under the curve of the metabolite signals.

Data set [3] concerns Human prostate cancer cells (PC-3). The experiment in a line: Carboxyl esterase CE-2 activity by in cell DNP conversion in PC-3 cells, co-polarized with 1-13C-pyruvate. It is filed as cell-based. The settings on record: for AUC (arb. Units), area under the metabolic curve: 10 million cells, approx. 3.5 mM of each substrate, 37 C. The procedure: as §1
Human cancer cells (PC-3) were grown in RPMI+10% FBS and antibiotics. Following trypsin harvesting 10 million cells were redissolved in 500 μl phosphate buffer (PBS) and transferred to a 10 mm NMR tube and placed with connecting tubing in a 14.1 T magnet at 37° C.
as §2

The nature of data set [4]: DNP hyperpolarization in the solid state. Format: physicochemical. The settings on record: DNP at 1.2 K, 3.35 T, microwave 93.900 GHz. The procedure:
A) Finland radical, carboxylic acid form (0.7 mg, 0.67 μmol) was dissolved in 1-^13C-1,1-Bis(acetoxy(methyl-d2))-2,2′-d4-cyclopropane (45 μl, 50.7 mg, 0.27 mmol). To the solution was added a DMSO solution of the gadolinium complex ([alfa1,alfa4,alfa7-tris[(phenylmethoxy)methyl]-1,4,7,10-tetraazacyclododecane-1,4,7,10-tetraacetato(4-)]gadolinate(1-)]hydrogen) (0.75 mg of a 100 μmol/g solution). The concentration of radical and gadolinium were 15 mM and 1.6 mM respectively.
B) 30 μmol of a 1-^13C-1,1-Bis(acetoxy(methyl-d2))-2,2′-d4-cyclopropane sample made following the description in example 2.A was hyperpolarized. The composition was hyperpolarised under DNP conditions at 1.2 K in a 3.35 T magnetic field under irradiation with microwave (93.900 GHz). The polarization build-up constant was 750 s. The solid-state polarization was approx. 15%.

The subject of data set [5] is Human prostate cancer cells (PC-3) in comparison to healthy human prostate cells (PNT-1A). Put plainly: In cell DNP conversion in PC-3 cells compared with healthy PNT-1A cells. It is filed as cell-based. The settings on record: 10 million cells, approx. 3.5 mM substrate. The procedure: The experiments were performed with a polarization of 1-^13C-1,1-Bis(acetoxy(methyl-d2))-2,2′-d4-cyclopropane (30 μmol) resulting in a concentration of approx. 3.5 mM of this substrate in the experiments. The DNP preparation of 1-^13C-1,1-Bis(acetoxy(methyl-d2))-2,2′-d4-cyclopropane was performed as described in example 2.
Human prostate cancer cells (PC-3) or immortalized human prostate healthy cells were grown in RPMI+10% FBS and antibiotics. Following trypsin harvesting 10 million cells were redissolved in 500 μl phosphate buffer (PBS) and transferred to a 10 mm NMR tube and placed with connecting tubing in a 14.1 T magnet at 37° C.
Following dissolution in 5 ml phosphate buffer (40 mM pH 7.3), 2 ml of the substrate mixture was injected into 10 million cells in suspension. A series of 20 degree pulses every 2 s (56 scans in total) was acquired. The acquisition was started just before injection of the hyperpolarized substrate. Data are presented as metabolite signals as a function of time or as area under the curve of the metabolite signals.

Data set [6] has as its system prostate of healthy Copenhagen rats. The experiment in a line: DNP-MRI conversion in the healthy prostate of living rats. Format: in vivo, rat. The settings on record: intravenous, about 0.4 mmol/kg, n=2 rats. How it is done: DNP-MRI experiment has been performed on 2 healthy Copenhagen rats, 9 weeks old, with average weight of 180 g.
0.24 mmol of a 1-^13C-1,1-Bis(acetoxy(methyl-d2))-2,2′-d4-cyclopropane sample prepared following the description in Example 2A was hyperpolarized according to the conditions reported in example 2.B. The solid sample was then dissolved in 5 ml TRIS buffer (100 mM, pH 7.7) to obtain a hyperpolarized solution with 48 mM substrate concentration and a pH of 7.
2.8 ml of the dissolved hyperpolarized 1-^13C-1,1-Bis(acetoxy(methyl-d2))-2,2′-d4-cyclopropane solution was injected intravenously at an injection rate of about 0.25 mL/s through a catheter placed in the tail vein of the animal, resulting in a total administered close of about 0.4 mmol/kg. A time series of 64 NMR spectra separated by 3 s and generated by 10° radiofrequency pulses was acquired starting from 15 s before injection of the hyperpolarized substrate. In order to follow the whole metabolic fate of the molecules and the decay of the hyperpolarized signal. The ^13C MR signal was collected by a 20 mm surface coil placed around the prostate. Spatial localization of the signal has been achieved by combining the limited sensitivity volume of the receiving coil with a slice selective spectroscopic sequence including a single gradient kept on only during the excitation period.

Data on 15 compounds can be found in patent US10583209B2, “Hyperpolarized 1-13C-1,1-bis(acetoxy(methyl))-2,2′-cyclopropane as metabolic marker for MR” (BRACCO IMAGING S.P.A., priority 2013, dated 2020).

For the compound `C[13C](=O)O` [1-13C-acetate], the “T1, 37 C. 14.1 T” value in data set [1] is listed as 50 ± 3.

For the compound `O[13CH2][13C@H]1O[13CH](O)[13C@H](O)[13C@@H](O)[13C@@H]1O` (some centres unmarked) [13C6-glucose], in data set [1], the “T1, 37 C. 14.1 T” value is 15 ± 2.

On to `[2H]C([2H])(O)[13C]1(C([2H])([2H])OC(C)=O)C([2H])([2H])C1([2H])[2H]` [1-^13C-1-(acetoxy(methyl-d2))-1-(hydroxy(methyl-d2))-2,2′-d4-cyclopropane], for which the “AUC of metabolite relative to that of 1-13C-lactate” value in data set [2] was about 30 times; in data set [3], about 6 times. For the same compound, the “AUC (arb. Units), area under the metabolic curve” value (“AUC (arb. Units), area” for short) is recorded as 43480 arb. Units in data set [2] and 20550 arb. Units in data set [3].

On to `OC[C@H]1O[13CH](O)[C@H](O)[C@@H](O)[C@@H]1O` (some centres unmarked) [1-13C-glucose], for which the “T1, 37 C. 14.1 T” value in data set [1] is recorded as 20 ± 2.

`CC(=O)[13C](=O)O` [1-13C-pyruvate]: the “T1, 37 C. 14.1 T” value in data set [1] worked out at 45 ± 4.

For the compound `[2H]C([2H])(OC(C)=O)[13C]1(C([2H])([2H])OC(C)=O)C([2H])([2H])C1([2H])[2H]` [1-^13C-1,1-Bis(acetoxy(methyl-d2))-2,2′-d4-cyclopropane], the liquid state polarization in data set [1] (12 s after dissolution) is recorded as 13%. Also, the “T1, 37 C. 14.1 T” value in data set [1] stood at 85 ± 4. The “liquid state T1” value in data set [1] (14.1 T and 37 C, phosphate buffer 40 mM pH 7.3) is recorded as “approx. 85 s”. Further, the “hydrolysis in the dissolution process” value in data set [1] (dissolved in 5 ml phosphate buffer (40 mM, pH 7.3)) was “not hydrolysed”. Besides, in data set [4], the polarization build-up constant amounted to 750 s and the solid-state polarization entry is on record as “approx. 15%”. Moreover, the “metabolic conversion relative to hyperpolarized 1-13C pyruvate, comparing the maximum metabolite signal” value in data set [2] is recorded as “approx. 15 times”. In addition, in data set [3], the “metabolic conversion relative to hyperpolarized 1-13C pyruvate, comparing the maximum metabolite signal” value was “more than 3 times”. Besides, the “metabolic conversion in diseased cells (PC-3) relative to healthy cells (PNT-1A)” value in data set [5] is listed as “approx. 6 times”. Besides, the “uptake and metabolic conversion in rat prostate in vivo” value in data set [6] was “taken up by prostate cells and converted into its hyperpolarized metabolites”.

As to `[2H]C([2H])(O)[13C]1(C([2H])([2H])O)C([2H])([2H])C1([2H])[2H]` [1-^13C-1,1-(dihydroxy(methyl-d2))-2,2′-d4-cyclopropane], the “AUC (arb. Units), area” value in data set [2] is on record as 1559 arb. Units.

For the compound `N[C@@H](CC[13C](N)=O)C(=O)O` [5-13C-glutamine], the “T1, 37 C. 14.1 T” value in data set [1] is 22 ± 2.

Turning to 1,3-ethyl acetoacetate, in data set [1], the “T1, 37 C. 14.1 T” value stood at 27 ± 2.

For `O=[13C](O)CC(O)[13C](=O)O` (centres unmarked) [1,4-13C2-malate], in data set [1], the “T1, 37 C. 14.1 T” value is listed as 30 ± 3.

In the case of `C[C@H](N)[13C](=O)O` [1-13C-alanine], in data set [1], the “T1, 37 C. 14.1 T” value is on record as 31 ± 2.

With `C[C@H](O)[13C](=O)O` [1-13C-lactate, reference compound], the “T1, 37 C. 14.1 T” value in data set [1] is 40 ± 3. Further, the results for the “AUC (arb. Units), area” value in data set [2] and in data set [3] were 282 arb. Units and 3766 arb. Units, respectively.

Take `O=[13C](O)/C=C/[13C](=O)O` [1,4-13C2-Fumarate]: in data set [1], the “T1, 37 C. 14.1 T” value is listed as 35 ± 3.

On to `[2H]C([2H])(O)[13C]([2H])([2H])[N+](C)(C)C` [2-13C-1,1,2,2-d4-choline], for which, in data set [1], the “T1, 37 C. 14.1 T” value is given as 43 ± 4.

On to `CC([13CH3])CC(=O)C(=O)O` (centres unmarked) [1-13C-2-ketoisocaproate], for which the “T1, 37 C. 14.1 T” value in data set [1] is listed as 35 ± 4.
